Laboratory results as given in patent US5358936A, “Anionic furanose derivatives, methods of making and using the same” (Gordon; Paul, priority 1991, dated 1994).
Where “and” joins values, the source holds several entries; their conditions need not be identical. Identical values can stand only once.

Legend:
[1] = test system: rat stomachs; test: Gastric pathology following inflammatory stress and indomethacin, food-deprived rats (Example 21); format: in vivo
Description: (§1) Stress was induced by the following procedure. On day one, under ether anesthesia, 18 male Sprague Dawley rats were injected with a suspension of Zymosan A (1 mg/ml in normal saline; Sigma Chemical Co.) in each hind paw. Swelling developed and persisted. This treatment generated activated blood complement locally (including the C5a moiety), which then spread by the bloodstream throughout the animal.
(§2) Twenty-four hours later all rat paws were reinjected, this time with 0.1 ml of proinflammatory zymosan-activated rat serum containing additional amounts of inflammatory complement fragment C5a (as in Example 23, hereinafter). Five hours later 30 mg/kg indomethacin in an aqueous suspension was given to nine such rats by oral garage. These rats also received a subcutaneous injection of 0.1 ml normal saline. Nine other such rats were given indomethacin as above, and Compound III (50 mg/kg in normal saline subcutaneously). Four additional rats, not stressed (normal) were given water by garage as a placebo and saline subcutaneously. All rats were fed ad libitum on standard diet.
In contrast to the study of Example 20, above, in this study animals were food deprived for 24 hours before and also during the 24 hours following drug treatments. All animals were subjected to the inflammatory stress as described in Example 20. Eight such rats received 30 mg/kg indomethacin, and eight rats received indomethacin and Compound III (subcut., 50 mg/kg). Four rats, not stressed, were given placebo by garage.
All animals were sacrificed by ether euthanasia 24 hours later, and their stomachs evaluated for ulcer-related pathology.
In the stressed animals given indomethacin alone, pathology was much more severe than in Example 20. For scoring, therefore, the frequency of ulcers per rat stomach was quantified, and whether they were or were not bleeding.

[2] = test system: rat stomachs; test: Gastric pathology following inflammatory stress and indomethacin, fed rats (Example 20); format: in vivo, male Sprague Dawley rats; conditions: stress + indomethacin 30 mg/kg oral; Compound III 50 mg/kg subcutaneously where given; 24 hours
Description: as §1, §2
Twenty-four hours later all animals were sacrificed by ether euthanasia. Their stomachs were washed with saline and evaluated for ulcer-related pathology using an illuminated magnifying glass. This assay is similar to that reported by Kinney et al., J. Med. Chem., 33:327 (1990).

[3] = test system: hind limbs; test: Hind-foot mobility in established adjuvant arthritis (Example 27); format: in vivo, Lewis rats; conditions: Compound III 50 mg/kg oral where given
Description: Adjuvant arthritis was studied because it allows gaining of insight into effects of a drug in established and chronic inflammatory disease. Adjuvant arthritis shares certain features with rheumatoid arthritis but it is distinct. It is widely used in industry because it allows one to predict the potency of non-steroidal anti-inflammatory drugs (NSAID's) [Weichman, in Pharmaceutical Methods in the Control of Inflammation, Chang et al., eds.; Alan R. Liss, New York (1989) p. 362].
The rats used were of the Lewis strain, especially vulnerable to disease induction. Chronic polyarthritis was induced by the subcutaneous injection of complete Freund's adjuvant (CFA) into the rat tail. The CFA employed consists of 10 mg/ml heat-killed tubercle bacilli suspended in paraffin oil. An amount of 0.1 ml was injected, and the disease was allowed to develop over 14 days before daily assessments were made and treatments were initiated. Measurements that assess both increase in hind paw joint swelling and loss in hind limb function are taken.
Indomethacin was employed as a reference standard and given at 2 or 5 mg/kg. Treatment effects of Compound III, alone at 50 mg/kg given by oral gavage and in combination with indomethacin were assessed. Compound III was dissolved in water and indomethacin was suspended in water by homogenization. Both were administered sequentially by oral gavage.
Measurements by caliper include the lateral diameter of the ankle joint of each hind limb, and the dorsoventral diameter of the foot, just behind the toes. The prime measurement of function focusses on the fact that in many animals by day 14, and in most animals by day 16 after adjuvant administration, the arthritic rat can lose use of his hind limbs, which then are dragged behind him like logs. To quantify the recovery of function during treatment, a technique of Martel et al., Agents Actions, 15:403 (1984) was adapted. A blind assessment of the number of animals in each group that were able to draw their leg(s) under them and have these bear weight was carried out.

[4] = test system: rat paw; conditions: in vivo; cited from earlier work
[5] = test system: stomach ulcers; test: Gastric ulcers in rats with corona virus infection treated with indomethacin (Example 26); format: in vivo, rat; conditions: indomethacin 30 mg/kg oral; cimetidine 25 mg/kg s.c. or Compound III 17.5 mg/kg s.c. where given; P<0.02
Description: Corona virus is a non-lethal upper respiratory viral pathogen that not infrequently infects rat colonies. It is a type of rodent coryza or catarrh, the equivalent of a disease that falls somewhere between human influenza and a severe common cold. The animals of this study suffered from this condition, a circumstance which was evident by observation, and which was confirmed by virological diagnosis at the Biological Resources Laboratory of the University of Illinois at Chicago. Since stress is a common component of peptic ulcer development in both animals and man, it was concluded that this feature of the status of these experimental animals rendered them appropriate for an ulcer study.
In this study, animals were not food deprived and were divided into treatment groups such that 15 rats received 30 mg/kg indomethacin alone (in water by oral gavage), 14 rats received indomethacin plus an injection of 25 mg/kg cimetidine subcutaneously, and 7 rats received indomethacin plus subcutaneous injection of 17.5 mg/kg of Compound III.
All animals were sacrificed by ether euthanasia 24 hours later and their stomachs evaluated for ulcer pathology. In this study ulcers were not hemorrhagic. Results are shown below as the average number of stomach ulcers per stomach.

[6] = test system: rat stomachs; test: Gastric pathology following inflammatory stress and indomethacin, fed rats (Example 20); parameters: species or system male Sprague Dawley rats; conditions: in vivo

COc1ccc2c(c1)c(CC(=O)O)c(C)n2C(=O)c1ccc(Cl)cc1 [Indomethacin]
bleeding ulcers in group ([1]; eight rats): 22
total ulcers found in group ([1]; eight rats): 23 ulcers
Bleeding Ulcer Frequency, Mn ± SE ([1]; indomethacin 30 mg/kg, Compound III 50 mg/kg subcut. where given, 24 hours, P<0.001 vs indomethacin alone): 2.65 ± 0.063 Per Rat
Total Ulcer Frequency, n ± SE ([1]; indomethacin 30 mg/kg, Compound III 50 mg/kg subcut. where given, 24 hours, P<0.01 vs indomethacin alone): 2.88 ± 0.67 Per Rat
ulcers per affected rat ([1]; indomethacin: all eight rats, indomethacin + Compound III: only two rats): 1-5 ulcers
Mean Pathology score [2]: 1.43
Pathology score, individual rat [2]: 0.5 and 1.0 and 0.0 and 4.0 and 7.0
Total Immobility - Percent ([3]; Day 0, indomethacin 2 mg/kg/day): 100%
Total Immobility - Percent ([3]; Day 0, indomethacin 5 mg/kg/day): 100%
Total Immobility - Percent ([3]; Day 1, indomethacin 2 mg/kg/day, p < 0.02): 67%
Total Immobility - Percent ([3]; Day 1, indomethacin 5 mg/kg/day, p < 0.01): 70%
Total Immobility - Percent ([3]; Day 2, indomethacin 2 mg/kg/day, p < 0.01): 44%
Total Immobility - Percent ([3]; Day 2, indomethacin 5 mg/kg/day): 20%
Total Immobility - Percent ([3]; Day 3, indomethacin 2 mg/kg/day): 44%
Total Immobility - Percent ([3]; Day 3, indomethacin 5 mg/kg/day, control 100 (12/12)): 10%
effect on edema that develops following removal of the tourniquet, in words [4]: not effective at any time
Ulcer Frequency per stomach, Mn ± SE [5]: 2.53 ± 0.52 Per Stomach
ulceration by indomethacin without stress [6]: induced no ulceration
